{
  "source": "patent US6998234B2",
  "about": "“Methods for cancer prognosis and diagnosis relating to tumor vascular endothelial cells” (Oncotech, Inc., priority 2000, dated 2006)",
  "key": {"endothelial cells": {"test_system": "endothelial cells", "conditions": "from Mendel et al. 2000 (SU5416) and Laird et al. 2000 (SU6668); read-out: predetermined IC50 concentration; cited from earlier work"}, "HUVEC [1]": {"test_system": "HUVEC", "experiment": "Annexin V staining test for endothelial cells undergoing apoptosis (Annexin V-FITC/PI flow cytometry)", "type": "cell-based, human", "conditions": "HUVEC on collagen I, 0.0011 μM mM docetaxel, FIG. 6", "excerpt": "Altered cell attachment and loss of membrane integrity are among the earliest morphological features of programmed cell death. Annexin V, a 35-36 kDa Ca^2+-dependent phospholipid-binding protein, has a high affinity for the membrane phospholipid phosphatidylserine, normally located on the inner leaflet of the cell membrane (Raynal et al., 1994, Biochem. et Biophys. Acta. 1197:63-93). In cells undergoing apoptosis, however, phosphatidylserine is translocated to the outer leaflet of the plasma membrane and can be detected by Annexin V labeled with fluorescent dyes, such as FITC. To distinguish truly apoptotic cells from necrotic cells, Annexin V was used in combination with PI exclusion. In this assay, HUVEC undergoing apoptosis are Annexin V-positive, PI negative, while necrotic cells are Annexin V-positive, PI-positive.\nAs an example, HUVEC cells were cultured on collagen I and treated with 0.0011 μM mM docetaxel and then stained with both Annexin V and PI. Annexin V binding and PI staining of nuclei were documented for the same cell population using the PharMingen Annexin V flow cytometry assay and two-color immunofluorescence on live HUVEC monolayers. Staining with Annexin V-FITC was visible on the membrane as green fluorescence, and PI staining was visible in the nucleus as red fluorescence. […] In a separate experiment, HUVEC cells were transferred into Ultra Low Attachment 24-well plates (Corning, Inc., Corning N.Y.) covered with a layer of hydrogel that is hydrophilic and neutrally charged. The hydrogel surface inhibits non-specific immobilization, and therefore subsequent cell attachment, because proteins and other biomolecules passively adsorb to surfaces through hydrophobic and ionic interactions. Because of the lack of appropriate ECM providing anti-apoptotic signals, HUVEC undergo rapid apoptosis under these culture conditions. For example, 24 hours after their transfer into Ultra Low Attachment plates, 61% of HUVEC cells were undergoing an (Annexin V-positive, PI-negative) apoptotic process (shown in FIG. 7)."}, "HUVEC [2]": {"test_system": "HUVEC", "experiment": "APO-DIRECT assay (late apoptosis, DNA breaks)", "type": "cell-based, human", "conditions": "collagen I, 1 μM docetaxel, 48 hours, FIG. 8", "excerpt": "The APO-DIRECT assay (Phoenix Flow Systems, San Diego, Calif.) utilizes single step fluorescent labeling and flow cytometric analysis by taking advantage of the multitude of 3′-hydroxyl termini of DNA present in apoptotic cells. One of the hallmarks of cellular self-destruction by apoptosis is the activation of nucleases that degrade the higher order chromatin structure of the DNA into fragments of 50 to 300 kilobases. These DNA fragments result in the appearance of “DNA laddering” when the DNA is analyzed by agarose gel electrophoresis. (Arends et al., 1990, Am. J. Pathol. 136:593-608). Apoptotic cells were identified by labeling the 3′-hydroxy ends of double- and single-stranded DNA breaks with fluorescent-tagged deoxyuridine triphosphate nucleotides (F-dUTP) using the enzyme deoxynucleotidyl transferase (TdT). […] The APO-DIRECT assay identified cells undergoing apoptosis at a later stage of programmed cell death than assays based on Annexin V binding.\nIn these experiments, HUVEC were incubated on collagen I for 48 hours in the presence of 1 μM docetaxel. The cells were fixed in paraformaldehyde and stored at −20° C. until use. […] The gating display was created according to Phoenix Flow protocol using Linear Red Fluorescence (DNA) on the X-axis and Log green Fluorescence (d-UTP) on the Y-axis. […]"}, "HUVEC [3]": {"test_system": "HUVEC", "experiment": "Dil-ac-LDL uptake by HUVEC", "type": "cell-based, human", "conditions": "HUVEC on collagen I, 48 hours, 10 μM docetaxel, FIG. 12", "excerpt": "The uptake of Dil-ac-LDL (Biomedical Technologies, Inc., Stoughton Mass.) was utilized to identify and characterize differentiated VEC using fluorescent microscopy on live cell monolayers. After uptake, Dil-ac-LDL is degraded by lysosomal enzymes in endothelial cells, with the Dil fluorescent probe accumulating in the intracellular membrane. (Pitas et al., 1985, J. Cell. Biol. 100:103-117). Discrimination using this system is high, because no other cell type, with the exception of macrophages, is labeled to the same degree as VEC (Voura et al, 1998, Microsc. Res. Tech. 43: 265-275; Pitas et al., 1985, J. Cell Biol. 100:103-117), and macrophages can be excluded from the analysis and sorting protocols with CD45 staining. In addition, macrophages can be differentiated from VEC because the […] is more brightly labeled with Dil-ac-LDL.\n(§1) HUVEC were cultured for 48 hours on collagen I and treated with either 10 μM docetaxel, 1 μM docetaxel, or 10 μM thalidomide. The effect on cell morphology was observed by phase contrast microscopy. In addition, apoptotic HUVEC cultured on collagen in the presence of 10 μM docetaxel were stained with AnnexinV-FITC (green fluorescence) and PI (red fluorescence) and visualized with immunofluorescent photomicrography. […] An atypical pattern of Dil-ac-LDL accumulation in drug-treated cells was observed under high magnification."}, "HUVEC [4]": {"test_system": "HUVEC", "experiment": "HUVEC morphology by phase contrast microscopy", "type": "cell-based, human", "conditions": "HUVEC on collagen I, 48 hours; 10 μM or 1 μM docetaxel, 10 μM thalidomide, FIG. 11", "method": "as §1"}, "[5]": {"test_system": "VEC derived from fresh tumor specimens", "experiment": "Microarray analysis of drug-resistant versus drug-sensitive tumor-derived VEC sorted by Annexin V", "type": "cell-based, human", "conditions": "0.1 μM docetaxel, 24 hours", "method": "Anti-angiogenesis agents were screened using highly purified populations of endothelial cells derived from fresh tumor specimens. 2×10^7 VEC that were sorted for the expression of CD31 and CD105 endothelial markers were exposed to 0.1 μM docetaxel or 50 μM BSO, a proprietary drug. […] After 24 hours of drug exposure in cytophobic plates, VEC were sorted under sterile conditions using the above Annexin V-flow cytometry protocol. To ensure the purity of sorted VEC, the sorted populations were reanalyzed by flow cytometry for Annexin V and PI staining, as shown in FIG. 17. The purity of the sorted VEC populations varied between 97.3% and 99.1%. Total RNA was isolated from both resistant (Annexin V−/PI−) and sensitive (Annexin V+/PI−) populations, and cDNA probes were hybridized with Research Genetics GeneFilters© microarrays containing over 40,000 known human gene sequences. In order to compare the microarray results for the drug-resistant sample to the drug-sensitive sample, FIG. 18 is a two-dimensional scatter plot constructed of intensity values from the microarrays normalized by converting to the fraction of total intensity and then log transformed, which was used to compare the microarray results for the resistant and sensitive sample. Diagonal lines were utilized that separated the genes that have more than a 2-fold difference in expression level."}, "HUVEC [6]": {"test_system": "HUVEC", "experiment": "HUVEC tubulogenesis on MATRIGEL", "type": "cell-based, human", "conditions": "three hours after cell transfer", "excerpt": "Functional tests were also used to characterize the differentiation status of VEC cultured in different growth environments in vitro, as previously described. (Hewett et al., 1993, In Vitro Cell Dev. Biol. 29A: 823-830; Benelli et al., 1999, Int. J. Biol Markers 14: 243-246). MATRIGEL, a three-dimensional support matrix that is composed of solubilized membranes extracted from Engelbreth-Holm-Swarm (“EHS”) mouse sarcoma cells, was used because of the ability of mammalian VEC derived from different tissue sources to form capillary-like tubules and generate branched and forked networks in this media. The major components of this matrix are ECM proteins, such as laminin, collagen IV, entactin, and heparan sulphate proteoglycan, as well as growth factors, such as bFGF and EGF. MATRIGEL has previously been used to induce and maintain differentiation of endothelial, muscle, and neuronal cells, and for the development of three-dimensional matrix and cell invasion systems in vitro. (Gargett et al., 2000, Hum. Reprod. 15:293-301; Voura et al., 1998, Microsc. Res. Tech. 43: 265-275).\nVEC were cultured both on BIOCOAT MATRIGEL matrix-coated tissue culture flasks (Becton Dickinson), and on MATRIGEL matrix prepared from pre-frozen gels that were thawed, kept at +4° C. before use and solidified at +37° C. for 3-16 hours before testing. The optimal time to detect the formation of tubules and capillary-like networks on MATRIGEL was from 3-6 hours. (Gargett et al., 2000, Hum. Reprod. 15:293-301; Voura et al., 1998, Microsc. Res. Tech. 43: 265-275). […] No viable VEC were found in MATRIGEL cultures after 48 hours."}, "[7]": {"conditions": "RESISTANT, resistant versus sensitive VEC"}, "[8]": {"conditions": "SENSITIVE, resistant versus sensitive VEC"}},
  "data": [
    {"smiles": "Cc1cc(C)c(/C=C2\\C(=O)Nc3ccccc32)[nH]1", "note": "[SU5416]", "values": [
      {"measurement": "IC50", "setting": "endothelial cells", "value": 1000, "unit": "nM"}
    ]},
    {"smiles": "Cc1[nH]c(/C=C2\\C(=O)Nc3ccccc32)c(C)c1CCC(=O)O", "note": "[SU6668]", "values": [
      {"measurement": "IC50", "setting": "endothelial cells", "value": 340, "unit": "nM"}
    ]},
    {"smiles": "CC(=O)O[C@@]12CO[C@@H]1C[C@H](O)[C@@]1(C)C(=O)[C@H](O)C3=C(C)[C@@H](OC(=O)[C@H](O)[C@@H](NC(=O)OC(C)(C)C)c4ccccc4)C[C@@](O)([C@@H](OC(=O)c4ccccc4)[C@H]21)C3(C)C", "note": "[docetaxel]", "values": [
      {"measurement": "cells dead due to either apoptosis or necrosis", "setting": "HUVEC [1]", "value": 16, "unit": "%"},
      {"measurement": "cells intact (Annexin V-negative, PI-negative)", "setting": "HUVEC [1]", "value": 80, "unit": "%"},
      {"measurement": "cells undergoing apoptosis", "setting": "HUVEC [1]", "value": 3.5, "unit": "%"},
      {"measurement": "HUVEC that had undergone apoptosis", "setting": "HUVEC [2]", "value": 73, "unit": "%"},
      {"measurement": "Dil-ac-LDL uptake", "setting": "HUVEC [3]", "value": "very few docetaxel-treated HUVEC took up DIL-as-LDL"},
      {"measurement": "effect on cell morphology", "setting": "HUVEC [4]", "value": "rounded and partially detached HUVEC"},
      {"measurement": "Ratio, Human HLK1 mRNA, complete cds", "setting": "[5]; [7]", "value": 3.6},
      {"measurement": "Ratio, Interferon regulatory factor 5", "setting": "[5]; [7]", "value": 4.4},
      {"measurement": "Ratio, Keratin, type I cytoskeletal 14", "setting": "[5]; [7]", "value": 4},
      {"measurement": "Ratio, Small proline-rich protein 1B (cornifin)", "setting": "[5]; [7]", "value": 3.6},
      {"measurement": "Ratio, Tuberin", "setting": "[5]; [7]", "value": 3.2},
      {"measurement": "Ratio, Fibrinogen beta-chain precursor", "setting": "[5]; SENSITIVE", "value": 4.9},
      {"measurement": "Ratio, Human TWIK-related acid-sensitive K + channel gene", "setting": "[5]; SENSITIVE", "value": 5.9},
      {"measurement": "Ratio, Human metallothionein (MT)I-F gene", "setting": "[5]; [8]", "value": 6.2},
      {"measurement": "Ratio, Human mucosal addressin cell adhesion molecule", "setting": "[5]; [8]", "value": 9.5},
      {"measurement": "Ratio, Human putative fatty acid desaturase", "setting": "[5]; [8]", "value": 5.2},
      {"measurement": "tubulogenesis on MATRIGEL", "setting": "HUVEC [6]; 10 μM, FIG. 13", "value": "complete absence of VEC-like tubules"},
      {"measurement": "tubulogenesis and capillary-like network formation on MATRIGEL", "setting": "HUVEC [6]; lower doses (1, 0.1, 0.01, 0.001 μM)", "value": "inhibited tubulogenesis and capillary-like network formation"}
    ]},
    {"smiles": "O=C1CCC(N2C(=O)c3ccccc3C2=O)C(=O)N1", "note": "(stereo not shown) [thalidomide]", "values": [
      {"measurement": "effect on cell morphology", "setting": "HUVEC [4]", "value": "no effect on HUVEC morphology"},
      {"measurement": "effects on HUVEC tubulogenesis on MATRIGEL", "setting": "HUVEC [6]; 10, 1, 0.1, 0.01 and 0.001 μM", "value": "No effects"}
    ]}
  ]
}
